How the values were obtained:
[1] = system: small intestine-on-chip (primary human intestinal epithelium with or without HIMEC endothelium)
From the text: As used herein, “differentially permeable”, e.g., in reference to an intestinal barrier, refers to the intestinal barrier displaying a resistance to the passage of certain molecules as compared to monolayers of, e.g., endothelial cells or undifferentiated intestinal epithelial cells. […] Such assays are described in the Examples herein in detail. Briefly, the apical side of the intestinal barrier is contacted with one or more tracer molecules and the concentration of the tracer later found on the basal side of the intestinal barrier.
• PROCEDURE. […]
Intestinal functional assessment and cytokine measurements. […] The concentration of dye that diffused through the membrane into endothelial channel was measured in the effluent, and apparent paracellular permeability (Papp) was calculated using the following formula:
[formula] where Vrec is volume receiver (endothelial compartment), Crec concentration receiver, A the seeded area and Cdon concentration donor (epithelial compartment). Cytokines released in the medium were quantified using U-PLEX Biomarker Assays for human Fractalkine, GM-CSF, IFN-γ, IL-1α, IL-1β, IL-6, IL-8, and IL-10 (Mesoscale Discovery).

[2] = system: enteroid fragments (primary intestinal epithelial cells); experiment: Epithelial cell recovery and on-chip seeding of enteroid fragments generated with or without ROCK inhibitor; format: cell-based, human; conditions: ROCK inhibitor present during fragment isolation and seeding, images 24 h post seeding (FIG. 15)
Experimental: Representative images showing device seeded with enteroid fragments generated in the absence (−ROCK inhibitor) or presence (+ROCK inhibitor) were acquired 24 h post seeding. Equal cell seeding density and time was used for both of the conditions tested.
Prior to the establishment of primary cell culture in organ-on-chip microfluidic device, the hydrophobic PDMS surface is activated by oxygen plasma treatment and aminized with (3-aminopropyl)[…] silane (APTMS, SIGMA 281778). This surface functionalization allows for an improved cell attachment and facilitates long-term culture of intestinal stem cells and their progeny. Next ECM coating solution composed of 1% Matrigel (BD Corning, 356231) and 200 ug/ml Collagen I (BD Corning 3.36 mg/mL; 354226) is introduced in both the upper and the lower microfluidic channel and device is placed in a humidified 37° C. incubator for the minimum of 2 hours. Then human intestinal microvascular endothelial cells, e.g., purchased from ScienCell (Catalog #2900), are seeded on the bottom side of the porous stretchable PDMS membrane that separates two parallel microchannels of the organ-on-chip device. […]

| Compound | Optimal Papp (apparent permeability) for small intestine-on-chip [1] [×10⁻⁶ cm/s] | Papp [1] | epithelial cell recovery and on-chip seeding [2] |
| --- | --- | --- | --- |
| Lucifer Yellow | ~1 | 1-2×10^−6 |  |
| C[C@@H](N)[C@H]1CC[C@H](C(=O)Nc2ccncc2)CC1 [ROCK inhibitor, Y-27632] |  |  | Improved epithelial cells recovery and on-chip seeding |

From US12247227B2, “Methods relating to intestinal organ-on-a-chip” (PRESIDENT AND FELLOWS OF HARVARD COLLEGE, priority 2016, dated 2025)
